Results: paper PMC11288129, “Diversely evolved xibalbin variants from remipede venom inhibit potassium channels and activate PKA-II and Erk1/2 signaling” (BMC Biology, 2024)
Positions of bridges follow the written chain, without caps; N, C: chain ends. No end group written: not given here.

Experiments:
Kv1.1 = experiment: TEVC inhibition, Kv1.1; format: cell-based, rat; design: Inhibition data, Kv1.1: unit not given here; details: 1 µM
Source text: (§1) For the expression of Kv channels rat Kv1.1 (GenBank accession number: NM_173095 [88, 89]), rKv1.2 (NM_012970 [90, 91]), human Kv1.3 (NM_002232 [92, 93]), rKv1.4 (NM_012971 [94, 95]), rKv1.6 (NM_023954 [96, 97]), hKv2.1 (NM_004975 [98, 99]), hKv3.1 (NM_004976 [100, 101]), rKv4.2 (NM_031739 [102, 103]), hKv10.1 (NM_172362 [104, 105]), hERG1 [Kv11.1, (NM_000238 [106, 107])], and Shaker IR [from Drosophila melanogaster, (NM_167595 [108, 109])], Nav channels [rNav1.2 (NM_012647 [42, 110]), rNav1.4 (NM_013178 [111, 112]), hNav1.5 (NM_198056 [113, 114]), mNav1.6 (NM_001077499 [115, 116]), BgNav [from Blattella germanica, (DQ466887 [117, 118])] and the auxiliary subunits rβ1 (NM_001271045 [119, 120]), hβ1 (NM_001037 [121, 122]), and TipE [from D. melanogaster, (NM_079196 [109, 123])], and Cav channels hCav3.1 [124, 125], hCav3.2 [126, 127], and hCav3.3 [128, 129] in Xenopus oocytes, the linearized plasmids were transcribed using the T7 or SP6 mMESSAGEmMACHINE transcription kit (Ambion, Austin, TX, USA). Mature female animals were purchased from Nasco (Fort Atkinson, USA) and were housed in the Aquatic Facility (KU Leuven) in compliance with the regulations of the European Union (EU) concerning the welfare of laboratory animals as declared in Directive 2010/63/EU. The use of X. laevis oocytes was approved by the Animal Ethics Committee of the KU Leuven with the license number P186/2019. Stage V–VI oocytes were collected from anesthetized female X. laevis frog as previously described, with the frogs anesthetized by placement in 0.1% tricaine solution (amino benzoic acid ethyl ester; Merck, USA). Oocyte microinjection was performed using a microinjector (Drummond Scientifc®, USA), with a programmed cRNA injection volume of 4—50 nL, depending on the channel subtype. The oocytes were incubated in ND96 solution (96 mM NaCl, 2 mM KCl, 1.8 mM CaCl2, 2 mM MgCl2, and 5 mM HEPES, pH 7.4), supplemented with 50 mg/l gentamicin sulfate.
(§2) Electrophysiological measurements were performed at room temperature (18–22 °C) using the two-electrode voltage clamp (TEVC) technique. Data were obtained using a GeneClamp 500 amplifier (Axon Instruments, USA), and Clampex9 software (Axon Instruments), responsible for data acquisition and storage. Glass micropipettes were produced using glass capillaries (borosilicate WPI 1B120-6) and drawn in a WPI (World Precision Instruments, USA) manual stretcher. The bath and perfusion solutions were either the previously described ND96 (Nav and Kv channels) or calcium-free ND96 supplemented with 10 mM BaCl2 (Cav channels).
(§3) Whole-cell currents of oocytes were recorded 1 to 3 days after injection. Current and voltage electrodes were filled with 3 M KCl and their resistance was adjusted from 0.7 to 2.0 MΩ. Currents were sampled at 20 kHz (Nav channels) and 10 kHz (Kv and Cav channels) and filtered using a four-pole Bessel low-pass Bessel filter, at 1 kHz for sodium, and […] for potassium and calcium, except for the hERG ion channel, in which the currents were filtered at 1 kHz. Leak subtraction was performed using a -P/4 protocol. Kv1.x currents were evoked by 500 ms depolarizations to 0 mV followed by a 500-ms pulse to − 50 mV, from a holding potential of − 90 mV. Kv2.1, Kv3.1, and Kv4.2 currents were elicited by 500 ms pulses to + 20 mV from a holding potential of − 90 mV. Current traces of Kv10.1 were elicited by 2 s depolarization to 0 mV, from a holding potential of − 90 mV. Current traces of hERG1 channel were elicited by applying a + 40 mV prepulse for 2 s followed by a step of − 120 mV for 2 s. Sodium current traces were evoked by a 100 ms depolarization to 0 mV, from a holding potential of − 90 mV. The current–voltage (IV) relationships were determined by 100-ms step depolarizations between − 90 and + 40 mV, using 5 mV increments. […]

rNav1.2 = experiment: TEVC current-voltage relationship (Vhalf), Nav1.2; format: cell-based, rat; design: Vhalf, toxin inactivation, Nav1.2 / Vhalf, toxin activation, Nav1.2: unit not given here; details: for Vhalf, toxin activation, Nav1.2 / Vhalf, toxin inactivation, Nav1.2: 1 µM
Source text: as §1, §2, §3

| Sequence | inhibition of Kv1.1 (Kv1.1) | Inhibition data, Kv1.1 (Kv1.1; replicate 1) | Inhibition data, Kv1.1 (Kv1.1; replicate 2) | Inhibition data, Kv1.1 (Kv1.1; replicate 3) | Inhibition data, Kv1.1 (Kv1.1; replicate 4) | Vhalf, toxin activation, Nav1.2 (rNav1.2; replicate 1) | Vhalf, toxin inactivation, Nav1.2 (rNav1.2; replicate 1) | Vhalf, toxin activation, Nav1.2 (rNav1.2; replicate 2) | Vhalf, toxin inactivation, Nav1.2 (rNav1.2; replicate 2) | Vhalf, toxin activation, Nav1.2 (rNav1.2; replicate 3) | Vhalf, toxin inactivation, Nav1.2 (rNav1.2; replicate 3) | Vhalf, toxin activation, Nav1.2 (rNav1.2; replicate 4) | Vhalf, toxin inactivation, Nav1.2 (rNav1.2; replicate 4) | Vhalf activation shift, Nav1.2 (rNav1.2; 1 µM versus control (ND96)) |
| --- | --- | --- | --- | --- | --- | --- | --- | --- | --- | --- | --- | --- | --- | --- |
| RLFCIRHHKYCGHRPKRCCSGLFCRCNTFGTNCRCQSKGALGKLI (disulfide 4-19, 11-24, 18-35, 26-33) [xib1] | inhibit especially Kv1.1 channels | 76.3 | 66.2 | 76.2 | 75.3 | -16.7542 | -48.4729 | -15.666 | -54.2238 | -21.743 | -57.3333 | -24.4632 | -61.3134 |  |
| KRSCIRRFGRCDHRPNDCCYNSSCRCNLWGSNCRCQRMGLFQKWGK (disulfide 4-19, 11-24, 18-35, 26-33) [xib13] | inhibit especially Kv1.1 channels | 83.4 | 86.7 | 85.0 | 83.1 | -21.2222 | -50.4402 | -22.3496 | -54.6262 | -23.8888 | -52.3347 | -19.606 | -52.7049 | 1.5 mV |
